Data from patent publication US9895363B2, “Methods for modulating function of proliferating cell nuclear antigen (PCNA) and treating cancer with PCNA-targeting compounds” (University of Cincinnati, priority 2010, dated 2018).
pIC50: −log10 of the molar value. Where two headings read alike, the source gives them in different places.

Legend:
LNCaP cells [1] = test: MTT assay, PCNA-I1 and cisplatin alone or combined, LNCaP; format: cell-based, Human; details: Homo sapiens, LNCaP
Experimental: LNCaP or PC-3 cells were treated with a variety of concentrations of PCNA-I1 (0.1-10 μM) or cisplatin (0.1-10 μM) alone, or with a variety of concentrations of a combination of PCNA-I1 (0.1-10 μM) and cisplatin (0.1-10 μM) for four days. MTT assays were performed and IC50 values for PCNA-I1 and cisplatin were determined.

LNCaP cells [2] = test: DNA damage, apoptosis and cell cycle proteins by immunoblot, LNCaP; format: cell-based, Human
Experimental: (§1) Fluorescence-activated cell sorting (FACS) analysis was performed on both PC-3 cells and LNCaP cells using PCNA-I1. Specifically, cells were treated with 1 or 10 μM PCNA-I1 and sampled for the flow cytometry analysis at 24 H, 48 H, and 72 H. Expression of DNA damage and apoptosis-related proteins in PC-3 cells and LNCaP cells was also determined. Cisplatin, a well-known drug that induces DNA damage and apoptosis, was included in the experiment. LNCaP cells were treated for 6 H, 12 H, or 18 H with 10 μM PCNA-I1, 10 μM cisplatin, or both.
To further explore the differential effects of PCNA-I1 on LNCaP and PC-3 cells, the effects of PCNA-I1 and cisplatin on expression of cell cycle- and apoptosis-related proteins in the two cell lines were compared. LNCaP cells and PC-3 cells were treated with 1 μM PCNA-I1 and/or 5 μM cisplatin for 12 H, 18 H, or 24 H and cell lysates were sampled for immunoblotting.

PCNA = target: T1, PCNA (Homo sapiens, UniProt P12004); test: PCNA stability and degradation (immunoblot); format: cell-based; details: PC-3, 0.5 μM, up to 16 H, with or without CHX and MG132; FIG. 14
T1 construct: endogenous PCNA was knocked down with transfection of PCNA-specific siRNA; endogenous in cells; host or cells: PC-3
Experimental: PCNA is a very stable protein with a half life of 20 H in replicating cells. The effect of PCNA-I1 on PCNA stability and degradation was investigated. Specifically, PC-3 cells were treated for various times up to 24 H with protein synthesis inhibitor cycloheximide (CHX) to block de novo protein synthesis. Cells were lyzed in buffer A as discussed above and analyzed by immunoblotting. Additionally, because PCNA is subject to ubiquitination regulation, the effect of PCNA-I1 on and deregulation of PCNA through the proteosome-mediated system was also investigated. Specifically, PC-3 cells were treated for 16 H with 0.5 μM PCNA-I1 in the absence or presence of 5 μg/mL of CHX and/or 10 μM of MG132, a well-documented proteosome inhibitor.

[3] = system: MCF-7 breast cancer cells; test: Growth inhibition by MTT staining, MCF-7; format: cell-based; details: MCF7, 96 h, Human, tumor cells, treated four days
Experimental: (§2) Growth inhibitory effects of PCNA-I1 and PCNA-I2 were assessed in human cancer cell lines, mouse cancer cell lines, immortalized mouse cell lines, and human primary cell lines. Specifically, growth inhibitory effects of PCNA-I1 and PCNA-I2 were assessed using MTT staining in the following cells lines: 1) human cancer cell lines including LNCaP (androgen receptor […]), 22Rv1, DU-145, LAPC-4, and PC-3 (androgen receptor […]) prostate cancer cells; MCF-7 and T47D breast cancer cells; A375 and MDA-MB435 melanoma cells; 2) mouse cancer cell lines including TRAMP-C2RE3 prostate cancer cells, B16 and K1735 melanoma cells, UV2237 fibrosarcoma cells, and CT-26 colon cancer cells; 3) immortalized mouse lung cell lines and mouse endothelial cell lines; and 4) primary human cell lines including umbilical endothelial cells (HUVEC, PromoCell, Heidelberg, Germany), primary bone marrow mesenchymal stem cells (HuMSC, PromoCell), primary human mammary epithelial cells (HuBrEC, Lonza, Walkersville, Md.), primary human prostate epithelial cells (HuPrEC, Lonza), and primary mouse spleen lymphocytes (isolated in this laboratory), and primary mouse bone marrow stromal cells (isolated in this laboratory). […]
(§3) IC50 values were derived from growth inhibition curves. […] Inhibition of cell growth was calculated using the formula: growth inhibition (%)=(1−A570 of treated/A570 of control)×100. […]

[4] = system: primary bone marrow mesenchymal stem cells (MSC); test: Growth inhibition, bone marrow mesenchymal stem cells; format: cell-based, Human
Experimental: as §2, §3

LNCaP cells [5] = test: FACS analysis, LNCaP; format: cell-based, Human; details: particularly at 10 μM; FIG. 16
Experimental: as §1

T1 sequence (P12004 whole entry): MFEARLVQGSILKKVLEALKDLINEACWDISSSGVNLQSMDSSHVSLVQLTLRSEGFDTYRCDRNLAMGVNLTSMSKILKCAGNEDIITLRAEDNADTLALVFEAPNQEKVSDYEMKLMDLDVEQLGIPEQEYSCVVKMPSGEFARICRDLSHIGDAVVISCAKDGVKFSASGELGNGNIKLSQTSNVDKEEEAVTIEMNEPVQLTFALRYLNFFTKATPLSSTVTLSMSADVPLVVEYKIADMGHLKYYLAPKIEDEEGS

Cc1ccsc1C(=O)N/N=C/c1ccc2ccccc2c1O [PCNA-I1]
pIC50 (LNCaP cells [1]; 96 h, MTT, four days, single agent, read-out: IC50 doses for cell growth inhibition, LNCaP, agent alone): 6.64
pIC50 (LNCaP cells [1]; combined with 0.3 μM cisplatin, read-out: PCNA-I1 concentration giving 50% inhibition in combination, LNCaP): 7.17
Expression of retinoblastoma (Rb) and cyclin D1 (LNCaP cells [2]; LNCaP and PC-3, 1 μM PCNA-I1 and/or 5 μM cisplatin, 12-24 H): moderately downregulated expression of cell cycle-regulating proteins
Phosphorylation of p53, single agent (LNCaP cells [2]; LNCaP, 10 μM): induced
Expression of p21 protein (LNCaP cells [2]; LNCaP, 10 μM PCNA-I1 and/or 10 μM cisplatin): enhanced expression of p21 protein at 6 H and 12 H
PARP cleavage, single agent (LNCaP cells [2]; LNCaP, 10 μM alone): induced PARP cleavage
DNA double strand break (γH2AX induction), single agent (LNCaP cells [2]; LNCaP, 10 μM alone, 6-18 H, FIG. 17(A)): induced moderate double strand break (DSB) of DNA
PCNA degradation (PCNA): did not alter PCNA degradation
pIC50 [3]: 6.82
pIC50 ([4]; Homo sapiens, FIG. 2(C), read-out: IC50, MSC): 6.00
pIC50 ([4]; Human, Bone Marrow, normal cells, read-out: IC50 Values, Mesenchymal Stem Cells): 6.00
Apoptosis, LNCaP (sub-G1 population) (LNCaP cells [5]): induced significant apoptosis
